Data set [1] has as its system mice subjected to chronic restraint stress (CRS). Put plainly: Y-maze alternation task, chronic restraint stress (CRS) mice. It counts as in vivo, mouse. The protocol:
C57/B16 mice, males and females were ordered from Jackson Laboratories at 8 weeks old and were kept in normal housing conditions (12 h light ON cycle starting at 7 am/water and food ad libitum) for one week. During this week, animals were single housed and handled to reduce the anxiety-like response toward the experimenter. To induce a working memory deficit, mice were subjected to a chronic restraint stress protocol (CRS). They were placed in a 50 ml Falcon® tube, twice a day, for 1 hour during their diurnal cycle. The time of occurrence of the stress was randomized every day to avoid predictability. CRS was not applied on testing days. Y-maze test occurred 15 hours minimum after the last stressor.
Mice were first habituated to the Y-maze apparatus and distal cues during 2 consecutive days over a 10 min free exploration session (one session per day). The next day, animals performed a training session consisting in seven successive trials separated by a 30 s inter-trial interval (ITI); during this training session, mice were familiarized with the experimental procedure (opening and closing of the doors and confinement into the goal arms). For each trial, mice remained in the start-box for a 30 s ITI. Then, the door was opened and the mouse was allowed to enter freely one of the two goal arms; the chosen arm was closed and the choice was recorded. After a 30 s confinement period into the chosen arm, the mouse was removed and brought back to the start-box for a second trial identical to the first one and this procedure was repeated over the series of trials.
The same general procedure used in the training session was implemented 24 h later, except that the ITI was lengthened to 90 s. For this experiment, animals were acutely injected i.p. with vehicle or αPAM, 30 minutes before the beginning of the test. To dissociate memory deficits from an eventual progressive loss of motivation to alternate over the series, an 8th trial was added to the series which was separated from the 7th trial by a shorter ITI (5 s). All animals failing to alternate at the 8th trial were excluded. The mean alternation rate was calculated and was expressed in percentage (number of alternation done by the animal/total number of alternation possible×100)±SEM. The percentage of alternation during the entire task is considered as an index of working memory performance (50% of being a random alternation rate). Factorial ANOVA was applied to the data to reveal differences between groups. If the ANOVA was significant for group effect (p<0.05), Scheffe post-hoc analysis were conducted to identify which groups are different from each other.
All drugs were diluted in a vehicle solution containing 85% H2O, 14% propylene glycol (Sigma Aldrich) and 1% Tween 80 (Sigma Aldrich). Working solutions were prepared at a concentration of 10 mg/mL and administered i.p. adjusted to the body weight of each animal. Doses used were either 1, 5, 10 or 20 mg/kg. For all Y maze experiments, animals were acutely injected i.p. with vehicle or αPAM, 30 minutes before the beginning of the test.

In the next data set the test system is C57B1/6 male mice. Nature of the data set: Forced swim test (FST). The class given is in vivo, mouse. The following applies: 10 mg/kg i.p. 24, 20, 1 hour before testing; vs vehicle. As for the experimental part: C57B1/6 male mice were ordered from Jackson Laboratories at 8 weeks-old and were group housed (4-5 mice/cage) under normal housing conditions (12 h light ON cycle starting at 7 am/water and food ad libitum) for one week. During this week, animals were handled in order to habituate them to the experimenter and to reduce their anxiety-like response during behavioral testing.
All drugs were diluted in a vehicle solution containing 85% H2O, 14% propylene glycol (Sigma Aldrich) and 1% Tween 80 (Sigma Aldrich). Working solutions were prepared at a concentration of 20 mg/mL and administered i.p. adjusted to the body weight of each animal. Doses used were either 1, 5 or 10 mg/kg. For all FST experiments, animals were injected i.p. with vehicle or αPAM.
Mice were tested in the forced swim test (FST) (measure of despair-like behavior used for the assessment of antidepressant efficacy). Animals were sub-chronically injected three times (24, 20 and 1 hour before testing) as per standard methods in the field for testing potential antidepressant compounds.
One hour after the last injection, mice were placed in an inescapable transparent tank filled with water (25 cm, 25-26° C.), where they are unable to touch the bottom and unable to jump out of the tank. Animal were recorded for a period of 6 minutes and a manual count of the immobile time in the tank was measured for the 2-6 minutes period by an experimenter blinded to the mouse treatment history. Immobility is defined as the minimum amount of movement to stay afloat. Compounds that reduced immobility in the FST are considered to have potential antidepressant actions.

For data set [2], the system named is Female Swiss Webster mice. Nature of the data set: Rotarod sensorimotor / locomotor coordination. The class given is in vivo, mouse. The following applies: 40 mg/kg oral gavage; 15 rpm, 3 min; 10, 30, 60 min after dosing. As for the experimental part:
Female Swiss Webster mice (10 weeks of age) from Charles River Laboratory, WIL, MA were used for the experiments. The animals were housed under specific pathogen-free conditions, under standard conditions of humidity, temperature and a controlled 12 h light and dark cycle and had free access to food and water. The sensorimotor rotarod test was carried out 10, 30 and 60 minutes after the injection. Mice were tested on a rotarod at 15 rpm for maximum 3 min and the time of fall was recorded. Falling before the 3 minutes period of testing assesses of locomotor coordination impairment induced by the compound.
Mice (N=10/group) received a single administration via oral gavage of test compound (40 mg/kg), diazepam (5 mg/kg), or vehicle (2% polyethylene glycol, 2.5% hydroxypropylmethyl cellulose solution).

Data set [3] can be described thus: Human liver microsome stability assay. It counts as in vitro ADME. The following applies: 10 μM compound; for half-life at 10 μM: human, liver microsomes, read-out: Half-life (min) (HumanLM). As for the experimental part:
(§1) Human and mouse liver microsomes were obtained fom BD Gentest.
(§2) Each evaluation included six independent assays carried out three at a time, on two different days
(§3) 2. For a total volume of Microsomal Assay Mixture (MAM) 390 μL, sufficient for seven time points, combine the following
(§4) 3. Sonicate MAM for 5 min and meanwhile thaw microsomes (20 mg/mL) (BD Gentest, Cat #452156) on ice.
(§5) 4. Aliquot 100 μL of ice cold ISTD into 7 separate 1.5 mL conical vials and label them the time points for 0, 10, 20, 40, 60, 90, and 120 min.
(§6) 5. Arrange the timer. Microsomes (Final concentration of 0.5 mg/mL) should be added to all time points except the zero time point.
(§7) 6. Add 50 μL of the MAM solution to the conical vial labelled as zero time point. Place the remaining MAM solution in the incubator (37° C.) for 5 min and initiate the reaction with addition of microsomes (8.8 μL) and record the time.
(§8) 7. At the end of each time interval remove 50 μL and add 100 μL to ISTD in conical vial, sonicate for 10 sec and spin down at 10,000 rpm for 5 minutes.
(§9) 8. Take 100 μL of supernatant and transfer to Spin-X HPLC filter tubes (Corning Incorporated, Cat #8169) and centrifuge at 13,000 rpm for 5 minutes and take 5 μL from this solution and dilute in 495 μL of LCMS grade methanol (Fischer scientific, CAS #67-56-1) in an 2 mL glass auto sampler vial (Microsolv, Cat #95025-WCV) 9. The samples are analyzed by LCMS-8040. (Shimadzu)
(§10) Calculation: From the peak area, calculate the following
(§11) The compounds are tested for the metabolic stability in the Human and Mouse Liver microsomes at 10 μM concentration.

Data set [4] in a line: Mouse liver microsome stability assay. The class given is in vitro ADME. The following applies: 10 μM compound; for half-life at 10 μM: mouse, liver microsomes, read-out: Half-life (min) (MouseLM). The protocol: as §1, §2, §3, §4, §5, §6, §7, §8, §9, §10, §11
A further data set has as its system HEK293. Nature of the data set: Cytotoxicity assay (CellTiter-Glo), HEK293. It counts as cell-based, human. The following applies: 48 hours incubation. The protocol: (§12) Human liver hepatocellular carcinoma (HEPG2) and human embryonic kidney 293 (HEK293) cell lines were purchased (ATCC) and cultured in 75 cm2 flasks (CellStar). Cells were grown in DMEM/High Glucose (Hyclone, #SH3024301) media to which non-essential amino acids (Hyclone, #SH30238.01), 10 mM HEPES (Hyclone, #SH302237.01), 5×106 units of penicillin and streptomycin (Hyclone, #SV30010), and 10% of heat inactivated fetal bovine serum (Gibco, #10082147) were added. Cells were harvested using 0.05% Trypsin (Hyclone, #SH3023601), washed with PBS, and dispensed into sterile white, optical bottom 384-well plates (NUNC, #142762). After three hours, small molecule solutions were transferred with a Tecan Freedom EVO liquid handling system equipped with a 100 nL pin tool (V&P Scientific). The controls (E)-10-(bromotriphenylphosphoranyl)decyl 4-(4-(tert-butyl)phenyl)-4-oxobut-2-enoate (400 μM in DMSO, positive control) and DMSO (negative control). The cells were incubated for 48 hours followed by the addition of CellTiter-Glo™, a luminescence-based cell viability assay (Promega, Madison, Wis.). All luminescence readings were performed on a Tecan Infinite M1000 plate reader. The assay was carried out in quadruplet with three independent runs. The data was normalized to the controls and analyzed by nonlinear regression (GraphPad Prism).

The next data set has as its system HEPG2. Nature of the data set: Cytotoxicity assay (CellTiter-Glo), HEPG2. It counts as cell-based, human. The following applies: 48 hours incubation. The protocol:
as §12

The nature of data set [5]: Pharmacokinetics in mice (plasma, liver, brain). The following applies: i.p. dosing at 3 mg/kg.
Another data set deals with adult male Wistar rats. Nature of the data set: Spontaneous locomotor activity in rats. It counts as in vivo, rat. The following applies: 10 mg/kg i.p.; for distances traveled in 5-min intervals: 60 min recording; for overall distance traveled during 60 min (spontaneous locomotor activity): vs SOL. As for the experimental part: (FIG. 23). […] Procedure for the assessment of locomotor activity changes induced by additional ligands in rats. […] The test was performed in the apparatus consisting of four white and opaque Plexiglas chambers (40×25×35 cm) under dim red light (20 lux). Digital camera mounted above the apparatus recorded the animal activity, which was tracked and analyzed using ANY-maze Video Tracking System software (Stoelting Co, Wood Dale, Ill., USA). […] The 10 mg/kg dose of each of ligands or SOL were applied i.p. in the 10 ml/kg volume and a single rat was immediately placed in the center of the chamber. The activity was tracked for a total of 60 min. Chambers were cleaned with diluted ethanol after every trial. Statistical analysis (one-way ANOVA and post hoc SNK tests where applicable) was performed in SigmaPlot 11 software (Systat, USA).

Values joined by “and” are separate entries in the source; they are usually repeats but may differ in a detail not shown here. Equal entries are not always repeated. “Also recorded” adds a separate entry of the source. Bounds are passed on as bounds.

Regarding `Cc1noc(-c2ncn3c2[C@@H](C)N=C(c2ccccn2)c2cc(Br)ccc2-3)n1` [GL-II-54, (R)-5-(8-bromo-4-methyl-6-(pyridin-2-yl)-4H-benzo[f]imidazo[1,5-a][1,4]diazepin-3-yl)-3-methyl-1,2,4-oxadiazole], the “Alternation rate (%)” value in data set [1] (Dose 10 mg/kg) is reported as 66.66%. Further, in the data set on C57B1/6 male mice, the “time spent immobile in the FST” value is “significant decrease in immobility time; also recorded: significant antidepressant-like action”. In data set [2], the “sensorimotor impairment on rotarod (time of fall)” value (from here on “sensorimotor impairment on rotarod”) was “no sensorimotor impairment”. Further, in [3], the “% left after 2 hr. (Human LM)” value is given as 76.0 ± 0.2% and the half-life at 10 μM is 404 ± 61 min. The half-life at 10 μM in [4] stood at 2330 ± 1110 min. The “HEK293 LD50” value with HEK293 is above 400 µM. The “HEPG2 LD50” value in the data set with HEPG2 was above 400 µM. Also, in data set [5], the “molar concentration range reached in mouse brain tissue” value (“molar concentration range reached” for short) is “high submicromolar to low micromolar values”.

Take `C#Cc1ccc2c(c1)C(c1ccccc1F)=N[C@@H](C)c1c(C(=O)NC)ncn1-2` [MP-III-023, (S)-8-ethynyl-6-(2-fluorophenyl)-N,4-dimethyl-4H-benzo[f]imidazo[1,5-a][1,4]diazepine-3-carboxamide]: the “Alternation rate (%)” value in data set [1] (Dose 5 mg/kg) is recorded as 62.5%. Besides, in the data set on adult male Wistar rats, the “distances traveled in 5-min intervals” value is on record as “induced sedation during nearly the whole period of recording” and the “overall distance traveled during 60 min (spontaneous locomotor activity)” value is recorded as “profound sedation”. For the same molecule, in data set [2], the “sensorimotor impairment on rotarod” value is “most severe motor impairment”. In data set [3], the “Half-life (min) (HumanLM)” value was 1790 ± 40 min. Also, in data set [4], the “Half-life (min) (MouseLM)” value came to 846 ± 5 min; the “% left after 2 hr. (MouseLM)” value is 84.6% and 84.6 ± 0.2%. In addition, in the data set with HEK293, the “HEK293 LD50” value is above 200 µM. Besides, in the data set with HEPG2, the “HEPG2 LD50” value is above 200 µM. Also, the “molar concentration range reached” value in data set [5] was “micromolar concentrations”.

For `CNC(=O)c1ncn2c1CN=C(c1ccccc1F)c1cc(Br)ccc1-2` [RV-II-04], in data set [1] (Dose 5 mg/kg), the “Alternation rate (%)” value is given as 54.1%. In the data set with adult male Wistar rats, the “distances traveled in 5-min intervals” value is “induced sedation during nearly the whole period of recording” and the “overall distance traveled during 60 min (spontaneous locomotor activity)” value is listed as “profound sedation; also recorded: sedated when compared to all other groups”. Moreover, the “sensorimotor impairment on rotarod” value in [2] is listed as “most severe motor impairment”. Moreover, in [3], the “% left after 2 hr. (Human LM)” value came to 80.2 ± 0.4% and the half-life at 10 μM was 595 ± 157 min. In data set [4], the “% left after 2 hr. (MouseLM)” value worked out at 73.7 ± 0.3% and the half-life at 10 μM turned out to be 302 ± 33 min. Also, the “HEK293 LD50” value with HEK293 is above 200 µM. Moreover, the “HEPG2 LD50” value in the data set with HEPG2 was above 200 µM. Further, the “molar concentration range reached” value in data set [5] is on record as “micromolar concentrations”.

For the origin of these results see patent US10906909B2, “Treatment of cognitive and mood symptoms in neurodegenerative and neuropsychiatric disorders with ALPHA5-containing GABAA receptor agonists” (UWM Research Foundation, Inc., priority 2016, dated 2021).
